Experimental data published in patent US20060014231A1, “Methods and compositions to promote bone homeostasis” (priority 2004, published 2006).

T1: NR1H3 (Homo sapiens, UniProt Q13133)
T1 construct: amplification of the complete open reading frame from ATG start codon to the stop codon of drugable genes; expressed in transfected cells; host or cells: primary human bone-marrow mesenchymal progenitor cells (MPCs), adenoviral transduction (Ad5-NR1H3 with Ad-hCAR)
T1 sequence (Q13133 1-447): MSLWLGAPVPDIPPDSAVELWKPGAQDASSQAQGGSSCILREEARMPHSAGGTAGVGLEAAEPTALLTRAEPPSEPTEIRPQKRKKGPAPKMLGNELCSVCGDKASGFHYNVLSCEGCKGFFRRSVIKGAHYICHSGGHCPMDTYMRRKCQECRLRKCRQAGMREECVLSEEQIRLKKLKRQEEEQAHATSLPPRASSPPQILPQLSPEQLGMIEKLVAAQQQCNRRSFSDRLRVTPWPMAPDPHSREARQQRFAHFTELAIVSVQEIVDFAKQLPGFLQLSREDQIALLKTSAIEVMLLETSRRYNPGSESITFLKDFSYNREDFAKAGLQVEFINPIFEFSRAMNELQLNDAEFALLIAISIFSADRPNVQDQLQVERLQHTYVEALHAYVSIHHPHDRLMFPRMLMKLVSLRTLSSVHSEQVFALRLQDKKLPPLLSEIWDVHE

T2: NR1H2 (Homo sapiens, UniProt P55055)
T2 construct: amplification of the complete open reading frame from ATG start codon to the stop codon of drugable genes; expressed in transfected cells; host or cells: primary human bone-marrow MPCs, adenoviral transduction (Ad5-NR1H2 with Ad-hCAR)
T2 sequence (P55055 1-460): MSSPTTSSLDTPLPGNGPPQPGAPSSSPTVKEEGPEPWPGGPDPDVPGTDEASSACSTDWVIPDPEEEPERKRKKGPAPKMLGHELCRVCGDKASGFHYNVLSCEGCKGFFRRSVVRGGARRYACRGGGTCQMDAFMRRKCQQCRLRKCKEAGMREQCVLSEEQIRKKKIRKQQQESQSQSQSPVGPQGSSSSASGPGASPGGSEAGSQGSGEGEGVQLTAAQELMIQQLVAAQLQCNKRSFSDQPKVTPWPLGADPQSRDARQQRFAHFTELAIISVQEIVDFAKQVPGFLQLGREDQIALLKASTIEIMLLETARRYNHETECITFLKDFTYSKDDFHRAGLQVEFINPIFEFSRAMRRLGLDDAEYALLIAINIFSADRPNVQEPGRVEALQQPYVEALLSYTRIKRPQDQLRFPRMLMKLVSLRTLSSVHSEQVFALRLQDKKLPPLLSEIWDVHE


Key:
NR1H3 = target: T1, NR1H3; assay: Alkaline phosphatase (AP) assay in MPCs infected with Ad-NR1H3 and treated with ligand; format: cell-based; details: MPCs infected with Ad-NR1H3, increasing ligand concentrations, MUP fluorescence readout
Procedure: Cellular AP activity is determined 6 days after the infection (or ligand addition—see below). The principle of the assays is depicted in FIG. 2. Mesenchymal stem cells derived from bone marrow are infected with the FLeXSelect™ cDNA library viruses in the presence of Ad5C15-hCAR or Ad5C20-hCAR virus. Six days after the start of infection or treatment with a ligand, endogenous alkaline phosphatase activity is measured following addition of 4-methylumbelliferyl […] (MUP) substrate.
The stocks of the Ad-control-viruses are generated in 96 well plates (control plate). The 2 μl volume corresponds to a theoretical MOI of 5000. Controls are: P1=Ad-BMP2; P2=Ad-H4-2; P3=Ad-H4-291; N1=Ad-LacZ; N2=Ad-empty; N3=Ad-eGFP. Up-regulation of alkaline phosphatase is read at 6 days post infection (6 dpi): 15 μl 4-Methylumbelliferyl-phosphate (MUP, Sigma) is added to each well, the plates are incubated for 15 min at 37° C. and monitored for AP activity using a fluorescence plate reader (Fluostar, BMG).
These dose-response curves are depicted in FIG. 5. […] MPCs are seeded on day 0 at 1000 cells per well of a 384 well plate and co-infected the next day using AdC51-hCAR (MOI 250) and different MOIs of Ad5-NR1H3 (MOI 12000, 4000, 1333, 444).
After 6 days, medium is removed and replaced with fresh medium containing the same concentrations of the compound GW3965. Readouts of AP activity are performed at several time points after the start of the experiment, typically after 7, 10 and 13 days.
After 6 days, medium is removed and replaced with fresh medium containing the same concentrations of the compound APD.

NR1H2 = target: T2, NR1H2; assay: Alkaline phosphatase (AP) assay in MPCs infected with Ad-NR1H2 and treated with ligand; format: cell-based; details: MPCs infected with Ad-NR1H2, increasing ligand concentrations, MUP readout after 7, 10 and 13 days
Procedure: (§1) After 6 days, medium is removed and replaced with fresh medium containing the same concentrations of the compound T0901317. Readouts of AP activity are performed at several time points after the start of the experiment, typically after 7, 10 and 13 days. Up-regulation of alkaline phosphatase activity is read as follows: medium is removed from the monolayers, 15 μl MUP is added to each well, the plates are incubated for 15 min at 37° C. and then read for AP activity using a fluorescence plate reader (Fluostar, BMG).
as §1, with “MPCs are seeded on day 0 at 1000 cells per well of a 384 well plate and co-infected the next day using AdC51-hCAR (MOI 250) and different MOIs of Ad5-NR1H2 (MOI 2000, 666). On day 1, 9 concentrations (1.52E-9M, 4.57E-9M, 1.37E-8M, 4.12E-8M, 1.23E-7M, 3.7E-7M, 1.11E-6M, 3.33E-6M, 1E-5M) of the compound GW3965 with fixed vehicle concentration (DMSO at final concentration of 0.161%) are added to the wells. After” for “After”, “GW3965.” for “T0901317.”
as §1, with “APD.” for “T0901317.”

GPR65 = target: T3, GPR65 (Homo sapiens, UniProt Q8IYL9); assay: Alkaline phosphatase (AP) assay in MPCs infected with Ad-GPR65 and treated with ligand; format: cell-based; details: MPCs infected with Ad-GPR65, increasing ligand concentrations
T3 construct: amplification of the complete open reading frame from ATG start codon to the stop codon of drugable genes; expressed in transfected cells; host or cells: primary human bone-marrow MPCs, adenoviral transduction (Ad-GPR65 with Ad-hCAR)
Procedure: These dose-response curves are depicted in FIG. 5. A dose-response curve for AP activity is generated for MPCs infected with Ad-NR1H3 and treated with T0901317 (FIG. 5A). MPCs are seeded on day 0 at 1000 cells per well of a 384 well plate and co-infected the next day using AdC51-hCAR (MOI 250) and different MOIs of Ad5-NR1H3 (MOI 12000, 4000, 1333, 444). On day 1, 5 concentrations (1E-10M, 1E-9M, 1E-8M, 1E-7M, 1E-6M) of the compound T0901317 (Cayman Chemical, Michigan USA, Cat. No. 71810) with fixed vehicle concentration (the vehicle is DMSO at the concentration is 0.01 %) are added to the wells. After incubation for 6 days at 37° C., 10% CO2 in a humidified incubator, up-regulation of alkaline phosphatase is read: 15 μl MUP is added to each well, the plates are incubated for 15 min at 37° C. and monitored for AP activity using a fluorescence plate reader (Fluostar, BMG).
Dose-response curves for AP activity are generated in a similar way for MPCs infected with Ad-GPR65 and treated with 1-b-D-Galactosylsphingosine (FIG. 5B); for MPCs infected with Ad-AVPR2 and treated with [deamino-Cys1, D-Arg8]-Vasopressin (DDAVP) (FIG. 5C).

MPCs = assay: Up-regulation of NR5A2 and NR1H3 mRNA levels by osteogenic triggers in MPCs; format: cell-based, human; details: final concentration 0.1 μM, versus vehicle, several time points
Procedure: 100,000 MPCs are seeded in each well of a 6 well plate in 2 ml MPC medium, containing 10% FCS. The next day, after incubation at 37° C., 10% CO2 in a humidified incubator, cells are co-infected with AdC15-hCAR (final MOI of 750) and Ad-BMP2, Ad-RUNX2, Ad-MSX2, Ad-PTHR1/PTHLH or Ad-eGFP or Ad-luciferase as negative controls (final MOIs of 1250 and 2500). Alternatively, cells are treated with dexamethasone (final concentration 0.1 μM), VitD3 (final concentration 0.1 μM) or the vehicle controls (0.1% EtOH or DMSO). Cells are incubated at 37° C., 10% CO2 in a humidified incubator for a further six days unless cells are already harvested for RNA isolation. Virus is removed and replaced by 2 ml fresh OS medium (proprietary medium containing 10% FCS). Over the next 18 days, medium is refreshed 3 times per 2 weeks. Every other time, medium is refreshed half or completely. […] The fold up-regulation of NR5A2 or NR1H3 mRNA compared to negative controls (vehicle for dexamethasone or VitD3 treatment) or Ad-luciferase for Ad-infections) is calculated (FIG. 16).

[1] = tested on: calvarial skull bones (hemicalvaria); assay: Calvarial skull assay (bone organ culture, weight and histological readout); design: species or system CD1 mice; details: histological readout
Procedure: CD1 pups are harvested around birth from CD1 female mice (received from Janvier (Le Genest St Isle, France) when they were 11 days pregnant). Pups are decapitated and the calvarial skull is dissected and split into 2 hemicalvaria. Hemicalvaria are blotted using sterile gauze, weighed and cultured in 24 well plates (MEMalpha or BGJb-Fitton-Jackson medium containing 50 μg/ml L-ascorbic acid (Sigma, A-4034), 5 mM β-glycerophosphate (Sigma, G-9891) and Penicillin-Streptomycin (Invitrogen Cat # 15140-122)). Small molecules (ligands, agonists, antagonists) are tested in at least three-fold at a minimum of 3 concentrations. Each small molecule is added to the medium on day 0 and added again when refreshing the medium (every 2-3 days). Three to 16 days after the start of the experiment, skulls are weighed again after blotting them dry using sterile gauze. The weight difference is calculated, expressed as percent weight change and the mean and standard deviations (SD) are calculated for the triplicate measurements. Data are analyzed using the Student's t-test.
The formation of new osteoid is analyzed histologically as follows: hemicalvaria are fixed in 10% buffered formalin for at least 2 days, decalcified in 10% EDTA overnight, processed through graded alcohols and embedded in paraffin wax. Three to 10 μm sections are prepared of the calvaria and stained with hematoxylin and eosin (H&E). Healthy cells, dead cells, old and new bone, and collagen are identified by their distinctive morphology and colouring observed after H&E staining. The surfaces taken by these are measured stereologically (μm^2 readout) and termed Osteoblast area, Debris area, Native and New bone area, Collagen area and Total area (sum of the previous 5 areas), respectively. In addition, the thickness (μm readout) is measured at 8 positions, evenly spaced over the section.
The histological readout of the calvarial skull assay is developed using known osteogenic agents. Hemicalvaria were treated with recombinant human parathyroid hormone (rhPTH).
T0901317 is added to the culture medium of the dissected hemicalvaria at the day of dissection at several doses (19.5, 78.1 and 313 nM), in fourfold. The concentration of the solvent (vehicle), DMSO, is fixed at a final concentration of 0.05%. The medium, containing T0901317 or vehicle control is refreshed every 2-3 days. Hemicalvaria are harvested 7 days after the initiation of the experiment and subjected to the histological analysis described above.

T3 sequence (Q8IYL9 whole entry): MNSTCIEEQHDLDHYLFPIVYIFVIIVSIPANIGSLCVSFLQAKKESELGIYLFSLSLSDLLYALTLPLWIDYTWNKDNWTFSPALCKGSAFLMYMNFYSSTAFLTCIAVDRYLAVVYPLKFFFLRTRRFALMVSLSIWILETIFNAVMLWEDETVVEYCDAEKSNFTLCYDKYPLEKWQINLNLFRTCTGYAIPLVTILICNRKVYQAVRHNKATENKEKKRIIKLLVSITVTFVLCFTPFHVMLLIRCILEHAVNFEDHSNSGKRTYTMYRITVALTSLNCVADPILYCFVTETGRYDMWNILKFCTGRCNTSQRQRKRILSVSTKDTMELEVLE

| Molecule | up-regulation of endogenous alkaline phosphatase (AP) activity (NR1H3) | up-regulation of alkaline phosphatase (AP) activity (NR1H2) | other results |
| --- | --- | --- | --- |
| CCCCCCCCCCCCCC=CC(O)C(N)CO[C@@H]1O[C@H](CO)[C@H](O)[C@H](O)[C@H]1O (stereo partly drawn) [1-b-D-Galactosylsphingosine] |  |  | up-regulation of endogenous alkaline phosphatase (AP) activity (GPR65): dose-dependently increase |
| C=C1CC[C@H](O)C/C1=C/C=C1\CCC[C@]2(C)[C@@H]([C@H](C)CCCC(C)C)CC[C@@H]12 [VitD3] |  |  | NR5A2 mRNA levels (MPCs): up-regulated |
| PTH: recombinant human parathyroid hormone, known osteogenic agent (protein, UniProt P01270 32-115, looked up, Parathyroid hormone, recombinant human parathyroid hormone, known osteogenic agent) Parathyroid hormone: SVSEIQLMHNLGKHLNSMERVEWLRKKLQDVHNFVALGAPLAPRDAGSQRPRKKEDNVLVESHEKSLGEADKADVNVLTKAKSQ |  |  | effect on bone tissue ([1]; 10^−7 M): resorptive effect; effect on bone tissue ([1]; 10^−11 M): induces bone build-up |

Further lines, with some results ahead:

| up-regulation of endogenous alkaline phosphatase (AP) activity (NR1H3) | up-regulation of alkaline phosphatase (AP) activity (NR1H2) | Molecule | other results |
| --- | --- | --- | --- |
| dose-response relation | dose-response relation | O=C(O)Cc1cccc(OCCCN(Cc2cccc(C(F)(F)F)c2Cl)CC(c2ccccc2)c2ccccc2)c1 [GW3965] |  |
| dose-response relation | dose-response relation | CC(=O)Oc1ccc2c(c1)[C@@]1(C)CCC[C@](C)(C(=O)OC(=O)[C@@]3(C)CCC[C@]4(C)c5cc(OC(C)=O)ccc5CC[C@@H]34)[C@@H]1CC2 [APD, acetyl podocarpic dimer] |  |
